Here are results for five compounds from patent publication US10743540B2, “3-amino-1,2,4-triazine derivatives and their use for controlling undesired plant growth” (BAYER CROPSCIENCE AKTIENGESELLSCHAFT, priority 2016, dated 2020).

Format in all cases: in vivo
Experiment [1] concerns ABUTH: Abutilon theophrasti. The experiment in a line: Pre-emergence herbicidal effect. The conditions noted are these: application rate 320 g/ha, scored visually after 3 weeks, 100% = plants have died, 0% = like control plants. The method in brief: (§1)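 Visual scoring after a 3-week greenhouse period gave percent activity (100% = dead, 0% = like control). Treatment was pre-emergence: aqueous WP or EC formulations with 0.2% wetting agent, applied at 600 to 800 L/ha onto covering soil over seeds in sandy loam.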

The test system of experiment [2] is ALOMY: Alopecurus myosuroides. The experiment in a line: Pre-emergence herbicidal effect. The conditions noted are these: application rate 320 g/ha, scored visually after 3 weeks, 100% = plants have died, 0% = like control plants. In short, it runs like this:
as §1

The test system of experiment [3] is ECHCG: Echinochloa crus-galli. The experiment in a line: Pre-emergence herbicidal effect. The conditions noted are these: application rate 320 g/ha, scored visually after 3 weeks, 100% = plants have died, 0% = like control plants. The method in brief: as §1
Experiment [4] has as its system MATIN: Matricaria inodora. Kind of experiment: Pre-emergence herbicidal effect. The conditions noted are these: application rate 320 g/ha, scored visually after 3 weeks, 100% = plants have died, 0% = like control plants. The method in brief: as §1
Experiment [5] has as its system POLCO: Polygonum convolvulus. The experiment in a line: Pre-emergence herbicidal effect. The following applies: application rate 320 g/ha, scored visually after 3 weeks, 100% = plants have died, 0% = like control plants. The method in brief:
as §1

The next experiment concerns SETVI: Setaria viridis. The experiment in a line: Pre-emergence herbicidal effect. The conditions noted are these: application rate 320 g/ha, scored visually after 3 weeks, 100% = plants have died, 0% = like control plants. In short, it runs like this: as §1
The subject of experiment [6] is STEME: Stellaria media. The experiment in a line: Pre-emergence herbicidal effect. The conditions noted are these: application rate 320 g/ha, scored visually after 3 weeks, 100% = plants have died, 0% = like control plants. The method in brief: as §1
The subject of experiment [7] is VERPE: Veronica persica. The experiment in a line: Pre-emergence herbicidal effect. The following applies: application rate 320 g/ha, scored visually after 3 weeks, 100% = plants have died, 0% = like control plants. In short, it runs like this:
as §1

The subject of experiment [8] is AMARE: Amaranthus retroflexus. Kind of experiment: Post-emergence herbicidal effect. The conditions noted are these: application rate 320 g/ha, treated at one-leaf stage, assessed visually after about 3 weeks, 100% = plants have died. In short, it runs like this:
(§2)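 Greenhouse foliar spray, one-leaf stage; WP/EC formulation in water at 600 to 800 L/ha + 0.2% wetting agent. Visual % rating ~3 wk post-treatment vs untreated (100% = plants dead, 0% = as control).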

For experiment [9], the system named is ECHCG: Echinochloa crus-galli. The experiment in a line: Post-emergence herbicidal effect. The conditions noted are these: application rate 320 g/ha, treated at one-leaf stage, assessed visually after about 3 weeks, 100% = plants have died. In short, it runs like this:
as §2

The test system of experiment [10] is STEME: Stellaria media. The experiment in a line: Post-emergence herbicidal effect. The conditions noted are these: application rate 320 g/ha, treated at one-leaf stage, assessed visually after about 3 weeks, 100% = plants have died. The method in brief: as §2
The subject of experiment [11] is VERPE: Veronica persica. The experiment in a line: Post-emergence herbicidal effect. The following applies: application rate 320 g/ha, treated at one-leaf stage, assessed visually after about 3 weeks, 100% = plants have died. In short, it runs like this:
as §2

Another experiment concerns VIOTR: Viola tricolor. The experiment in a line: Post-emergence herbicidal effect. The conditions noted are these: application rate 320 g/ha, treated at one-leaf stage, assessed visually after about 3 weeks, 100% = plants have died. In short, it runs like this:
as §2

Experiment [12] deals with LOLMU: Lolium multiflorum. Kind of experiment: Pre-emergence herbicidal effect. The following applies: application rate 320 g/ha, scored visually after 3 weeks, 100% = plants have died, 0% = like control plants. The method in brief:
as §1

Experiment [13] concerns ALOMY: Alopecurus myosuroides. The experiment in a line: Post-emergence herbicidal effect. The conditions noted are these: application rate 320 g/ha, treated at one-leaf stage, assessed visually after about 3 weeks, 100% = plants have died. The method in brief: as §2

On to `CC(=O)c1nnc(N[C@H]2c3cc(C)ccc3C[C@@H]2C)nc1N` [Example 1.26], for which the “Herbicidal activity with respect to [%] ABUTH” value (“Herbicidal activity … [%] ABUTH” for short) in experiment [1] is 100%. The “Herbicidal activity with respect to [%] ALOMY” value (from here on “Herbicidal activity … [%] ALOMY”) in experiment [2] was found to be 100%. Besides, the “Herbicidal activity with respect to [%] ECHCG” value (from here on “Herbicidal activity … [%] ECHCG”) in experiment [3] and in experiment [9] was 100% throughout. Moreover, in [4], the “Herbicidal activity with respect to [%] MATIN” value (from here on “Herbicidal activity … [%] MATIN”) turned out to be 100%. For the same compound, the “Herbicidal activity with respect to [%] POLCO” value (from here on “Herbicidal activity … [%] POLCO”) in experiment [5] worked out at 100%. In addition, the “Herbicidal activity with respect to [%] SETVI” value (from here on “Herbicidal activity … [%] SETVI”) with SETVI: Setaria viridis was 100%. Besides, the “Herbicidal activity with respect to [%] STEME” value (from here on “Herbicidal activity … [%] STEME”) in the experiment with STEME: Stellaria media [6] and in the experiment on STEME: Stellaria media [10] was 100% in each case. Also, the “Herbicidal activity with respect to [%] VERPE” value (from here on “Herbicidal activity … [%] VERPE”) in the experiment with VERPE: Veronica persica [7] and with VERPE: Veronica persica [11] was 100% throughout. The “Herbicidal activity with respect to [%] AMARE” value (“Herbicidal activity … [%] AMARE” below) in experiment [8] turned out to be 90%. The “Herbicidal activity with respect to [%] VIOTR” value (shortened to “Herbicidal activity … [%] VIOTR”) in the experiment with VIOTR: Viola tricolor turned out to be 100%.

For the compound `Cc1ccc2c(c1)[C@H](Nc1nnc(C(=O)N(C)C)c(N)n1)[C@@H](C)C2` [Example 1.40], the “Herbicidal activity … [%] ABUTH” value in experiment [1] is given as 90%. Also, the “Herbicidal activity … [%] ALOMY” value in [2] is reported as 100%. Besides, in experiment [3], the “Herbicidal activity … [%] ECHCG” value is on record as 100%. In addition, the “Herbicidal activity with respect to [%] LOLMU” value in experiment [12] is 100%. The “Herbicidal activity … [%] MATIN” value in [4] stood at 100%. In experiment [5], the “Herbicidal activity … [%] POLCO” value came to 100%. Moreover, the “Herbicidal activity … [%] SETVI” value with SETVI: Setaria viridis was 100%. Besides, the “Herbicidal activity … [%] STEME” value with STEME: Stellaria media [6] worked out at 100%. In addition, the “Herbicidal activity … [%] VERPE” value in the experiment with VERPE: Veronica persica [7] and in the experiment with VERPE: Veronica persica [11] was 100% each time. Also, in the experiment with VIOTR: Viola tricolor, the “Herbicidal activity … [%] VIOTR” value amounted to 80%.

With `CS(=O)(=O)c1nnc(N[C@@H]2CCCc3ccccc32)nc1N` [Example 1.66], the “Herbicidal activity … [%] ABUTH” value in [1] is listed as 100%. For the same compound, the “Herbicidal activity … [%] ALOMY” value in experiment [2] is reported as 80%. Besides, the “Herbicidal activity … [%] ECHCG” value in experiment [3] is given as 100%. Further, the “Herbicidal activity with respect to [%] LOLMU” value in experiment [12] is on record as 100%. Also, the “Herbicidal activity … [%] MATIN” value in [4] is listed as 100%. In [5], the “Herbicidal activity … [%] POLCO” value was 100%. Further, in the experiment with SETVI: Setaria viridis, the “Herbicidal activity … [%] SETVI” value is listed as 100%. Moreover, the “Herbicidal activity … [%] STEME” value with STEME: Stellaria media [6] and with STEME: Stellaria media [10] was 100% each time. The “Herbicidal activity … [%] VERPE” value in the experiment on VERPE: Veronica persica [7] and in the experiment on VERPE: Veronica persica [11] was 100% in each case. Also, the “Herbicidal activity … [%] VIOTR” value in the experiment with VIOTR: Viola tricolor turned out to be 90%.

For `CNC(=O)c1nnc(N[C@@H]2CCc3ccc(C)cc32)nc1N` [Example 1.76], in [1], the “Herbicidal activity … [%] ABUTH” value was determined as 100%. The “Herbicidal activity … [%] ALOMY” value in [2] was 100%; in [13], 80%. Further, the “Herbicidal activity … [%] ECHCG” value in [3] came to 100%. Besides, the “Herbicidal activity … [%] MATIN” value in [4] was 100%. The “Herbicidal activity … [%] POLCO” value in experiment [5] is 100%. In the experiment on SETVI: Setaria viridis, the “Herbicidal activity … [%] SETVI” value was 100%. The “Herbicidal activity … [%] AMARE” value in [8] turned out to be 80%. The “Herbicidal activity … [%] STEME” value with STEME: Stellaria media [10] is 100%.

`Cc1ccc2c(c1)[C@H](Nc1nnc(C(N)=O)c(N)n1)CC2` [Example 1.78]: the “Herbicidal activity … [%] ABUTH” value in experiment [1] turned out to be 100%. Further, the “Herbicidal activity … [%] ALOMY” value in experiment [2] and in [13] was 100% in each case. Besides, the “Herbicidal activity … [%] ECHCG” value in experiment [3] amounted to 100%. Moreover, in experiment [4], the “Herbicidal activity … [%] MATIN” value is 100%. Further, the “Herbicidal activity … [%] POLCO” value in [5] was determined as 90%. Moreover, the “Herbicidal activity … [%] SETVI” value in the experiment on SETVI: Setaria viridis is 100%. Besides, the “Herbicidal activity … [%] AMARE” value in experiment [8] came to 80%. In addition, in the experiment with STEME: Stellaria media [10], the “Herbicidal activity … [%] STEME” value was determined as 100%. Also, the “Herbicidal activity … [%] VIOTR” value in the experiment with VIOTR: Viola tricolor was 80%.
